Reference: ChEMBL document CHEMBL1158441 (Bioorg Med Chem Lett, 2009)

Legend:
Sphingosine kinase 1 = Sphingosine kinase 1 (Homo sapiens, UniProt Q9NYA1); assay: Inhibition of SphK1
Sphingosine kinase 2 = target: T1, Sphingosine kinase 2 (Homo sapiens, UniProt Q9NRA0); assay: Inhibition of SphK2
T1 sequence (Q9NRA0 whole entry): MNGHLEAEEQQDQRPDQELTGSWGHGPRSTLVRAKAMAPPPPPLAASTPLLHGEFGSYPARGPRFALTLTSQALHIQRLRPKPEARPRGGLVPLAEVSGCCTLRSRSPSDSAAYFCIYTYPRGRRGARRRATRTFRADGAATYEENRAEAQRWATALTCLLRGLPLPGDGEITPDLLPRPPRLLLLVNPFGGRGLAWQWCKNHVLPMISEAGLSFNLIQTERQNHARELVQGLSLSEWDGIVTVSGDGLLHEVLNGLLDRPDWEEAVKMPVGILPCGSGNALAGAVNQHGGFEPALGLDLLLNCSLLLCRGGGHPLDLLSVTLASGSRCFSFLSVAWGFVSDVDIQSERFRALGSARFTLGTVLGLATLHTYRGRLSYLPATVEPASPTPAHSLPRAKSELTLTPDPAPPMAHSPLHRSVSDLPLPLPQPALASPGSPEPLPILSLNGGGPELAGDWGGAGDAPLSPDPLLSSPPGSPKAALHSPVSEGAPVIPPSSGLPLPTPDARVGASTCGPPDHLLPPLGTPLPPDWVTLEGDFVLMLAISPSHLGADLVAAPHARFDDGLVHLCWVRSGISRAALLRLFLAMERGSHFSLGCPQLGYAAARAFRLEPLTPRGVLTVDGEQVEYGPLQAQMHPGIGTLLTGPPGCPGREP

Sphingosine kinase 1, sequence (Q9NYA1 whole entry): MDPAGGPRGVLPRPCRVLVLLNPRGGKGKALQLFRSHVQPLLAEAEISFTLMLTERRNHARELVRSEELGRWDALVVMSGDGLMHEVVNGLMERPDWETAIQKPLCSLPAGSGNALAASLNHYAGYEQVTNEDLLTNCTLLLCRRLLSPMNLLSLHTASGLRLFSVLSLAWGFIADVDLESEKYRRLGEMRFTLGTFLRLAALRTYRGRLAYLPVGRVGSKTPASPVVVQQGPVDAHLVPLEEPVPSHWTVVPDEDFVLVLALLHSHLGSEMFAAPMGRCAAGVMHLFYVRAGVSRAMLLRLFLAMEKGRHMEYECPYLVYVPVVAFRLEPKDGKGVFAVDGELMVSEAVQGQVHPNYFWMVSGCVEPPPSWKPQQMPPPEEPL

IC50 (Sphingosine kinase 1) [µM]	IC50 (Sphingosine kinase 2) [µM]	SMILES
3.98	29.2	N[C@@H](CO)[C@H](O)/C=C/CCCCCCCCCCCCCc1ccc(I)cc1
2.25	13.3	N[C@@H](CO)[C@H](O)/C=C/CCCCCCCCCCCc1ccc(I)cc1
2.19	4.38	N[C@@H](CO)[C@H](O)/C=C/CCCCCCCCCCc1ccc(I)cc1
–	1.56	CCCCCCCCCCCCC/C=C/[C@@H](O)[C@@H](N)CO [SPHINGOSINE]
–	> 80	CCCCCCCCCCCCC/C=C/[C@@H](O)[C@H](CO)N(C)C [DIMETHYLSPINGOSINE]
0.5	5.73	N[C@@H](CO)[C@H](O)/C=C/CCCCCCCCc1ccc(I)cc1
2.78	16.6	N[C@@H](CO)[C@H](O)/C=C/CCCCCCCCCc1ccc(I)cc1
3.96	7.23	N[C@@H](CO)[C@H](O)/C=C/CCCCCCc1ccc(I)cc1
